Data from the supplement of paper PMC4862054.

Legend:
Details in all cases: incubation time: 72 h
CAL-148 [1] = test: normalised response (% of control), CellTiter-Glo; higher = more viable cells (100 = DMSO, 0 = benzethonium chloride kill control)
Experimental: (§1)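 DSRT, 72 h incubation, CellTox Green / CellTiter-Glo readout. Signal is normalised to DMSO and benzethonium chloride controls. Value is the normalised response at dose 3.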

MDA-MB-453 [2] = test: as above
Experimental: as §1

MDA-MB-468 [3] = test: as above
Experimental: as §1

BT-474 [4] = test: as above
Experimental: as §1

MDA-MB-231 [5] = test: as above
Experimental: as §1

DU-4475 [6] = test: as above
Experimental: as §1

HCC1599 [7] = test: as above
Experimental: as §1

MCF-10A [8] = test: as above
Experimental: as §1

CAL-85-1 [9] = test: as above
Experimental: as §1

CAL-51 [10] = test: as above
Experimental: as §1

HDQ-P1 [11] = test: as above
Experimental: as §1

HCC1143 [12] = test: as above
Experimental: as §1

SK-BR-3 = test: as above
Experimental: as §1

Hs578T [13] = test: as above
Experimental: as §1

HCC1937 [14] = test: as above
Experimental: as §1

BT-549 [15] = test: as above
Experimental: as §1

MDA-MB-436 [16] = test: as above
Experimental: as §1

CAL-120 [17] = test: as above
Experimental: as §1

MFM-223 [18] = test: as above
Experimental: as §1

CAL-148 [19] = test: normalised response (% of control), CellTox Green; higher = less cell death (100 = DMSO, 0 = benzethonium chloride kill control)
Outline: (§2)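 In 384-well plates holding compound at 5 concentrations in 10-fold steps over a 10,000-fold range specific to each compound, breast cancer cell lines were seeded as 20 µl suspension and incubated 72 h. CellTox Green fluorescence was measured at 485/520 nm, after which CellTiter-Glo luminescence was measured following 10 min at room temperature. Plate signals were normalised to 0.1 % DMSO (100) and a positive kill control (0), and each value is the normalised signal at a single concentration.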

MDA-MB-453 [20] = test: as above
Outline: as §2

MDA-MB-468 [21] = test: as above
Outline: as §2

BT-474 [22] = test: as above
Outline: as §2

MDA-MB-231 [23] = test: as above
Outline: as §2

DU-4475 [24] = test: as above
Outline: as §2

HCC1599 [25] = test: as above
Outline: as §2

MCF-10A [26] = test: as above
Outline: as §2

CAL-85-1 [27] = test: as above
Outline: as §2

CAL-51 [28] = test: as above
Outline: as §2

HDQ-P1 [29] = test: as above
Outline: as §2

HCC1143 [30] = test: as above
Outline: as §2

Hs578T [31] = test: as above
Outline: as §2

HCC1937 [32] = test: as above
Outline: as §2

BT-549 [33] = test: as above
Outline: as §2

MDA-MB-436 [34] = test: as above
Outline: as §2

CAL-120 [35] = test: as above
Outline: as §2

MFM-223 [36] = test: as above
Outline: as §2

Row | SMILES | normalised response (CAL-148 [1]) [%] | normalised response (MDA-MB-453 [2]) [%] | normalised response (MDA-MB-468 [3]) [%] | normalised response (BT-474 [4]) [%] | normalised response (MDA-MB-231 [5]) [%] | normalised response (DU-4475 [6]) [%] | normalised response (HCC1599 [7]) [%] | normalised response (MCF-10A [8]) [%] | normalised response (CAL-85-1 [9]) [%] | normalised response (CAL-51 [10]) [%] | normalised response (HDQ-P1 [11]) [%] | normalised response (HCC1143 [12]) [%] | normalised response (SK-BR-3) [%] | normalised response (Hs578T [13]) [%] | normalised response (HCC1937 [14]) [%] | normalised response (BT-549 [15]) [%] | normalised response (MDA-MB-436 [16]) [%] | normalised response (CAL-120 [17]) [%] | normalised response (MFM-223 [18]) [%] | normalised response (CAL-148 [19]) [%] | normalised response (MDA-MB-453 [20]) [%] | normalised response (MDA-MB-468 [21]) [%] | normalised response (BT-474 [22]) [%] | normalised response (MDA-MB-231 [23]) [%] | normalised response (DU-4475 [24]) [%] | normalised response (HCC1599 [25]) [%] | normalised response (MCF-10A [26]) [%] | normalised response (CAL-85-1 [27]) [%] | normalised response (CAL-51 [28]) [%] | normalised response (HDQ-P1 [29]) [%] | normalised response (HCC1143 [30]) [%] | normalised response (Hs578T [31]) [%] | normalised response (HCC1937 [32]) [%] | normalised response (BT-549 [33]) [%] | normalised response (MDA-MB-436 [34]) [%] | normalised response (CAL-120 [35]) [%] | normalised response (MFM-223 [36]) [%]
1 | COc1cccc2c1C(=O)c1c(O)c3c(c(O)c1C2=O)C[C@@](O)(C(C)=O)C[C@@H]3O[C@H]1C[C@H](N)[C@H](O)[C@H](C)O1 [Daunorubicin] (10 nM) | 99.3 | 110 | 84.2 | 102 | 103 | 106 | 99.1 | 105 | 100 | 87.2 | 96.5 | 97 | 112 | 104 | 93.2 | 103 | 99.4 | 103 | 105 | 91.5 | 107 | 90.3 | 102 | 76 | 103 | 98.9 | 104 | 98.8 | 91.5 | 106 | 104 | 111 | 106 | 104 | 93.4 | 102 | 105
2 | C[C@@H]1C=C2C(=O)O[C@@H]3CC[C@H](C1)[C@]23O [Galiellalactone] (500 nM) | 120 | 105 | 101 | 102 | 110 | 103 | 101 | 109 | 100 | 109 | 103 | 109 | 108 | 104 | 107 | 101 | 101 | 106 | 110 | 99.8 | 104 | 126 | 99.7 | 114 | 105 | 116 | 104 | 93.5 | 115 | 110 | 73.3 | 105 | 100 | 89.4 |  | 103 | 96.2
3 | COC1=CC(c2cc3ccccc3[nH]2)=N/C1=C\c1[nH]c(C)cc1C [Obatoclax] (100 nM) | 86 | 104 | 88.4 | 88.8 | 88.4 | 99.5 | 93 | 97.3 | 89.2 | 87.8 | 99.6 | 93.5 | 90.5 | 92.6 | 91.3 | 97.5 | 91.4 | 98.1 | 96.3 | 103 | 104 | 96.5 | 63 | 66.7 | 98.6 | 98.6 | 93.4 | 87.6 | 88.2 | 53.7 | 89.8 | 84.5 | 88.3 | 103 |  | 95 | 93.8
